Patent publication US10981911B2, “Imidazopyrrolopyridine as inhibitors of the JAK family of kinases” (Janssen Pharmaceutica NV, priority 2016, dated 2021)
pIC50: −log10 of the molar value. Where two headings read alike, the source gives them in different places.

Columns and labels:
[1] = In vivo p.o. dosing: plasma and colon tissue concentrations (Protocols 1 and 2); set-up: species or system female C57BL/6 mice; conditions: female, C57BL/6, mouse, po, mice, 25 mg/kg p.o.
Method: These protocols are described below under the heading In vivo Studies. Three non-fasted female C57BL/6 mice were orally administered test compound at a dose of 25 mg/kg p.o. as a solution in 20% hydroxypropyl-beta-cyclodextrin (HPβCD) at a dose volume of 5 mL/kg. Blood samples were collected at 0.5, 2, and 4 h post dose via retro-orbital bleed or venipuncture of the dorsal metatarsal vein. Blood samples were collected into tubes containing anticoagulant (Heparin-Na) and placed on wet ice. The plasma fraction was separated by centrifugation and frozen at −20° C. for up to 4 h and −80° C. after 4 h unless analyzed shortly after sample collection. Colon samples were collected at 4 h post dose. […] The colon was further washed by putting it in 5 mL of saline and shaken for 5 seconds. The colon sample was then patted dry, weighed, and homogenized as 1 part tissue (g) to 4 parts HPLC grade water (mL). Concentrations of the compound in plasma and colon homogenate were determined using a qualified liquid chromatography-triple quadrupole mass spectrometry (LC-MS/MS) method. […] Three non-fasted female C57BL/6 mice were orally administered test compound at a dose of 25 mg/kg p.o. as a solution in 20% HPβCD at a dose volume of 5 mL/kg. Blood samples were collected at 0.5, 2, and 4 h post dose via retro-orbital bleed or dorsal metatarsal vein. Blood samples were collected into tubes containing anticoagulant (Heparin-Na) and placed on wet ice. The plasma fraction was separated by centrifugation and frozen at −20° C. for up to 4 h and −80° C. after 4 h unless analyzed shortly after sample collection. Colon samples were collected at 4 h post dose. From 2 cm below the cecum, a 4 cm sample of the colon was dissected, cut open on the longitudinal axis, and the solid contents removed by flushing with 2 mL of saline. The colon was further washed by putting it in 5 mL of saline and shaken for 5 seconds. The colon sample was then patted dry, weighed, and homogenized as 1 part tissue (g) to 4 parts HPLC grade water (mL). Concentrations of the compound in plasma and colon homogenate were determined using a qualified liquid chromatography-triple quadrupole mass spectrometry (LC-MS/MS) method.

[2] = tested on: GM-CSF pSTAT5 (JAK2/JAK2); assay: GM-CSF pSTAT5 (JAK2/JAK2) cellular assay (AlphaLISA, PBMCs); type: cell-based; conditions: PBMC, GM-CSF at 11 pg/mL
Method: The AlphaLISA assay (based on Alpha Technology from PerkinElmer) was performed by first plating freshly thawed PBMCs (Biological Specialty Corporation) in 384-well plates at 30,000 cells per 4 µL per well in HBSS containing 0.1% IgG-free, protease-free BSA (Jackson ImmunoResearch Cat. No. 001-000-161). The cells were then treated with 2 μL/well of compounds diluted in DMSO at half-log titrated concentrations, with a highest test concentration of […] and 0.5% final DMSO concentration, for thirty minutes at 37° C. Next, the cells were stimulated with 2 μL/well of GM-CSF (R&D Systems Cat. No. 215-GM-050) at 11 pg/mL for fifteen minutes at 37° C. The cellular reactions were terminated by the addition of 2 µL/well of lysis buffer (PerkinElmer Cat. No. ALSU-PST5-A10K) followed by an incubation of five minutes at room temperature. 5 μL/well of acceptor mix (PerkinElmer Cat. No. ALSU-PST5-A10K) was added to the cells and incubated in the dark for one hour at room temperature. Then, 5 μL/well of donor mix (PerkinElmer Cat. No. ALSU-PST5-A10K) was added to the cells and incubated in the dark overnight at room temperature. Finally, the plates were read on a PerkinElmer EnVision for detection of the time-resolved fluorescence signal. The percentage of GM-CSF-dependent pSTAT5 inhibition was determined at the compound test concentrations; and for each compound, a dose curve was generated and the IC50 was calculated. Compound IC50 was calculated by nonlinear regression, sigmoidal dose response analysis of the half-log dilution titration curve of the compound concentration vs. Alpha signal. The term “Alpha” is defined in the IL-2 pSTAT5 (JAK1/JAK3) cellular assay description.

[3] = colon, read-out: Colon Concentration After p.o. Dosing, Mean
[4] = plasma, read-out: Plasma Concentration After p.o. Dosing, Mean

SMILES | concentration at 4 h [1, 3] [ng/g] | concentration at 0.5 h [1, 4] [ng/mL] | concentration at 2 h [1, 4] [ng/mL] | concentration at 4 h [1, 4] [ng/mL] | pIC50 [2]
CC(C)(O)CNC(=O)Cc1nc2cnc3[nH]ccc3c2n1[C@H]1CC[C@H](CC#N)CC1 [Ex. 1, 2-(1-((1r,4r)-4-(Cyanomethyl)cyclohexyl)-1,6-dihydroimidazo[4,5-d]pyrrolo[2,3-b]pyridin-2-yl)-N-(2-hydroxy-2-methylpropyl)acetamide] | 8590 | 13.4 | 6.1 | 3.3 | –
N#CCC1CCC(n2c(-c3c[nH]cn3)nc3cnc4[nH]ccc4c32)CC1 (stereo not shown) [Ex. 2, 2-((1r,4r)-4-(2-(1H-Imidazol-4-yl)imidazo[4,5-d]pyrrolo[2,3-b]pyridin-1(6H)-yl)cyclohexyl)acetonitrile] | 7600 | 24.5 | 4.2 | 1.3 | 7.21
N#CC[C@H]1CC[C@H](n2c(CC(=O)NCC3CC3)nc3cnc4[nH]ccc4c32)CC1 [Ex. 3, 2-(1-((1r,4r)-4-(Cyanomethyl)cyclohexyl)-1,6-dihydroimidazo[4,5-d]pyrrolo[2,3-b]pyridin-2-yl)-N-(cyclopropylmethyl)acetamide] | 2150 | 41.4 | 3.9 | 1.5 | 7.66
N#CCCNC(=O)Cc1nc2cnc3[nH]ccc3c2n1[C@H]1CC[C@H](CC#N)CC1 [Ex. 4, N-(2-Cyanoethyl)-2-(1-((1r,4r)-4-(cyanomethyl)cyclohexyl)-1,6-dihydroimidazo[4,5-d]pyrrolo[2,3-b]pyridin-2-yl)acetamide] | 4450 | 12.9 | 7.5 | 3.3 | 6.92
N#CC[C@H]1CC[C@H](n2c(CC(=O)NC3CCOCC3)nc3cnc4[nH]ccc4c32)CC1 [Ex. 5, 2-(1-((1r,4r)-4-(Cyanomethyl)cyclohexyl)-1,6-dihydroimidazo[4,5-d]pyrrolo[2,3-b]pyridin-2-yl)-N-(tetrahydro-2H-pyran-4-yl)acetamide] | 5330 | 31.9 | 8.8 | 6 | 7.54
N#CC[C@H]1CC[C@H](n2c(CC(=O)NCC3CCOCC3)nc3cnc4[nH]ccc4c32)CC1 [Ex. 10, 2-(1-((1r,4r)-4-(Cyanomethyl)cyclohexyl)-1,6-dihydroimidazo[4,5-d]pyrrolo[2,3-b]pyridin-2-yl)-N-((tetrahydro-2H-pyran-4-yl)methyl)acetamide] | 11700 | 18.8 | 3 | 1.7 | 7.60
CC(C)(C#N)CNC(=O)Cc1nc2cnc3[nH]ccc3c2n1[C@H]1CC[C@H](CC#N)CC1 [Ex. 22, N-(2-Cyano-2-methylpropyl)-2-(1-((1r,4r)-4-(cyanomethyl)cyclohexyl)-1,6-dihydroimidazo[4,5-d]pyrrolo[2,3-b]pyridin-2-yl)acetamide] | 12000 | 47 | 9.6 | 5 | 7.17
N#CC[C@H]1CC[C@H](n2c(CC(=O)NCC3(O)CCC3)nc3cnc4[nH]ccc4c32)CC1 [Ex. 34, 2-(1-((1r,4r)-4-(Cyanomethyl)cyclohexyl)-1,6-dihydroimidazo[4,5-d]pyrrolo[2,3-b]pyridin-2-yl)-N-((1-hydroxycyclobutyl)methyl)acetamide] | 7400 | 43.1 | 5.4 | 2.6 | 7.47
N#CCC12CCC(NC(=O)Cc3nc4cnc5[nH]ccc5c4n3[C@H]3CC[C@H](CC#N)CC3)(CC1)C2 [Ex. 55, N-(4-(Cyanomethyl)bicyclo[2.2.1]heptan-1-yl)-2-(1-((1r,4r)-4-(cyanomethyl)cyclohexyl)-1,6-dihydroimidazo[4,5-d]pyrrolo[2,3-b]pyridin-2-yl)acetamide] | 3000 | 26.6 | 3.2 | 3.1 | 7.35
N#CC[C@H]1CC[C@H](n2c(CC(=O)NCC3(O)CC3)nc3cnc4[nH]ccc4c32)CC1 [Ex. 85, 2-(1-((1r,4r)-4-(Cyanomethyl)cyclohexyl)-1,6-dihydroimidazo[4,5-d]pyrrolo[2,3-b]pyridin-2-yl)-N-((1-hydroxycyclopropyl)methyl)acetamide] | 5880 | 15.6 | 4.2 | 2.3 | 7.12
